According to patent US20090163528A1, “Pharmaceutical composition having analgesic effects” (priority 2004, published 2009):
Like-named read-outs stand apart in the source and are kept apart here.

Legend:
Assay type in all cases: in vivo
Kunming breed mice [1] = settings: 200 mg/kg stomach perfusion
Kunming breed mice [2] = assay: Body twisting test, mixtures of fuziline, benzoylmesaconitine, mesaconitine and hypaconitine in different proportions (Test 4); settings: aspirin 200 mg/kg stomach perfusion
Description: Enteric coated aspirin tablet, white, 25 mg/pill, supplied by Xuzhou Enhua Pharmaceuticals Co., Ltd, batch No.: 20050312; take 4 pills of enteric coated aspirin tablet; grind and add with distilled water up to 10 ml to compound 10 mg/ml of solution composed of aspirin;
Divide at random the 70 Kunming breed mice, weighing 18-22 g, into 7 groups with equal number of each gender and each group, with the first group as the negative control group and the second group as the positive control group; perfuse the stomach of the first group mice with 0.2 ml/10 g of 10% alcohol; perfuse the stomach of the second group mice with 200 mg/kg (20 times the practice dose) of aspirin; the 3rd, 4th, 5th, 6th and 7th group are groups in five different proportions of […], benzoylmesaconitine, mesaconitine and hypaconitine; perfuse the groups with solution in five different proportions of […], benzoylmesaconitine, mesaconitine and hypaconitine; […]; inject into the stomach cavity of the mice with 0.2 ml of 0.6% glacial acetic acid 30 minutes after administration; observe the number of body twisting of each mouse 5 to 10 minutes after the injection of acetic acid; make statistical analysis of the data to calculate the increasing rate of pain threshold and the standard deviation of each group; compare the intergroup differences between each drug group and the negative control group with t-test.

Kunming breed mice [3] = settings: aspirin 200 mg/kg stomach perfusion
Kunming breed mice [4] = assay: Body twisting test, mixtures of fuziline and hypaconitine in different proportions (Test 6); settings: aspirin 200 mg/kg stomach perfusion
Kunming breed mice [5] = assay: Body twisting test, mixtures of fuziline and benzoylmesaconitine in different proportions (Test 7); settings: aspirin 200 mg/kg stomach perfusion
Kunming breed mice [6] = assay: Body twisting test, intramuscular injection of fuziline (Test 8); settings: 200 mg/kg ig.
Kunming breed mice [7] = assay: Body twisting test, skin administration of fuziline (Test 9); settings: 200 mg/kg ig.; acetic acid 30 minutes after
Description: Divide randomly the 40 Kunming breed mice, weighing 18-22 g, into 4 groups with equal number of each gender and each group. […] The first group is the negative control group. Smear an even layer of Vaseline plaster 0.1 g/piece onto the hair-disposed area of the of negative control group mice, covered lightly with a piece of gauze (1.5 cm×1.5 cm). The second group, as the positive control group is given stomach perfusion with 200 mg/kg of aspirin (20 times the practice use). […] Except that the mice of the second group are injected into the stomach cavity with 0.6% glacial acetic acid solution 30 minutes after the smearing, the mice of all other groups are injected into the stomach cavity with 0.6% glacial acetic acid solution 1.5 hours after the smearing; observe the number of body twisting of each mouse 5 to 10 minutes after the injection; make statistical analysis of the data to calculate the increasing rate of pain threshold and the standard deviation of each group; compare the intergroup differences between each drug group and the negative control group with t-test.

CC(=O)Oc1ccccc1C(=O)O [Aspirin, aspirin]
Body twisting number ( χ ± SD) (Kunming breed mice [1]; Table 2): 3.1 ± 3.3
Pain suppression rate (Kunming breed mice [1]; Table 2): 90.96%
Body twisting number ( χ ± SD) (Kunming breed mice [1]; Table 3): 3.1 ± 3.2
Pain suppression rate (Kunming breed mice [1]; Table 3): 92.11%
Body twisting number ( x ± SD) (Kunming breed mice [2]): 3.3 ± 3.2
Pain suppression rate (Kunming breed mice [2]): 88.0%
Body twisting number ( x ± SD) (Kunming breed mice [3]): 3.0 ± 3.3
Pain suppression rate (Kunming breed mice [3]): 82.7%
Body twisting number ( x ± SD) (Kunming breed mice [4]): 3.1 ± 3.3
Pain suppression rate (Kunming breed mice [4]): 82.7%
Body twisting number ( x ± SD) (Kunming breed mice [5]): 3.1 ± 3.3
Pain suppression rate (Kunming breed mice [5]): 82.7%
Body twisting number ( x ± SD) (Kunming breed mice [6]): 5.1 ± 6.0
Pain suppression rate (Kunming breed mice [6]): 81.6%
Body twisting number ( x ± SD) (Kunming breed mice [7]): 5.1 ± 6.0
Pain suppression rate (Kunming breed mice [7]): 81.6%
